These results are taken from ChEMBL document CHEMBL5506041, “Identification of 1,3,4-Thiadiazolyl-Containing Thiazolidine-2,4-dione Derivatives as Novel PTP1B Inhibitors with Antidiabetic Activity” (J Med Chem, 2024).

Activity calls are given as the source filed them. The rule behind the calls is not given here.

Data set [1] addresses T1, Tyrosine-protein phosphatase non-receptor type 1 (Homo sapiens, UniProt P18031).
T1 sequence (P18031 whole entry): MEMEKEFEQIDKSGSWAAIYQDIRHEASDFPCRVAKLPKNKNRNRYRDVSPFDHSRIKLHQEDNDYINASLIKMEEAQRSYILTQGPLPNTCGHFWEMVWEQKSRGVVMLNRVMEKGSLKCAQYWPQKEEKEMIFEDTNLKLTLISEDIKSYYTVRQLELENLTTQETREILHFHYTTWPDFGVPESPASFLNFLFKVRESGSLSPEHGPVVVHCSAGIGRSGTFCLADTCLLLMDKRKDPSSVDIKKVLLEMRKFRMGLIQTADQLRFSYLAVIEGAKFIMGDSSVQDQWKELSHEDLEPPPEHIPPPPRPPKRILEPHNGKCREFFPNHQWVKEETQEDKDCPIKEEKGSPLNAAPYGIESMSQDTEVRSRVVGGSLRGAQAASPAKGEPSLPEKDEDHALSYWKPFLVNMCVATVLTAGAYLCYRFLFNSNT
Kind of data set: Inhibition of PTP1B (unknown origin) using DiFMUP as substrate incubated for 10 mins by fluorescence based analysis.

The subject of data set [2] is Mus musculus. Kind of data set: Hypoglycemic activity in streptozotocin-induced C57/6J mouse model assessed as reduction in fasting blood glucose level at 50 mg/kg, ip administered once a week and fasted for 12 hrs. In kind it is functional, organism-based.
Data set [3] deals with Mus musculus. Kind of data set: Anti-diabetic activity in streptozotocin-induced C57/6J mouse model assessed as reduction in total cholesterol level in serum at 25 to 50 mg/kg, ip administered for 4 weeks. In kind it is functional, organism-based. To be noted: dose 25-50 mg/kg.
The target of data set [4] is T2, Tyrosine-protein phosphatase non-receptor type 1 (Homo sapiens) (UniProt P18031).
T2 sequence (whole entry): T1 sequence (P18031 whole entry)
Kind of data set: Noncompetitive inhibition of PTP1B1 (unknown origin) upto 1 uM by Lineweaver-burk plot analysis.

In data set [5] the test system is Mus musculus. Kind of data set: Anti-diabetic activity in streptozotocin-induced C57/6J mouse model assessed as reduction in fasted blood glucose level at 50 mg/kg, ip preadministered with compound for 3 weeks followed by fasting for 12 hrs and measured after 120 mins post glucose administration by OGTT analysis. In kind it is functional, organism-based. To be noted: time 518.0 hrs.

Data set [6] relates to L02. Kind of data set: Cytotoxicity activity against human L02 cells upto 32 uM by MTT assay. The settings on record: l02, 32 µM. Format: toxicity, cell-based. (In general: Formazan colour is commonly taken as a measure of viable cells.)
Data set [7] addresses T2, Tyrosine-protein phosphatase non-receptor type 1 (Homo sapiens). Kind of data set: Reversible inhibition of PTP1B1 (unknown origin) upto 1 uM by Lineweaver-burk plot analysis.
Data set [8] deals with HEK293. Kind of data set: Cytotoxicity activity against HEK293 cells upto 32 uM by MTT assay. In kind it is toxicity, cell-based. The settings on record: human, hek293, 32 µM.
For data set [9], the system named is Mus musculus. Kind of data set: Hypoglycemic activity in streptozotocin-induced C57/6J mouse model assessed as reduction in fasting blood glucose level at 25 to 50 mg/kg, ip administered once a week and fasted for 12 hrs. In kind it is functional, organism-based. The settings on record: dose 25-50 mg/kg.
For data set [10], the system named is HepG2. Kind of data set: Inhibition of insulin resistance in palmitic acid-induced human HepG2 cells assessed as upregulation of IRS1 expression incubated for 24 hrs followed by insulin addition for 10 mins. Format: functional, cell-based. The settings on record: dose 2-20 µM.
For data set [11], the system named is Mus musculus. Kind of data set: Anti-diabetic activity in streptozotocin-induced C57/6J mouse model assessed as reduction in triglyceride level in serum at 25 to 50 mg/kg, ip administered for 4 weeks. In kind it is functional, organism-based. To be noted: dose 25-50 mg/kg.
For data set [12], the target named is T2, Tyrosine-protein phosphatase non-receptor type 1 (Homo sapiens). Kind of data set: Potency index, ratio of lithocholic acid IC50 to test compound IC50 for inhibition of PTP1B (unknown origin) using DiFMUP as substrate incubated for 10 mins by fluorescence based analysis.
Data set [13] concerns HepG2. Kind of data set: Inhibition of insulin resistance in palmitic acid-induced human HepG2 cells assessed as upregulation of AKT expression incubated for 24 hrs followed by insulin addition for 10 mins. In kind it is functional, cell-based. To be noted: dose 2-20 µM.

A word on the IC50: it is the concentration that inhibits the measured activity by half. A higher IC50 goes with weaker potency. `N#Cc1cccc(CSc2nnc(NC(=O)c3ccc(/C=C4/SC(=O)NC4=O)cc3)s2)c1`: half-maximal inhibition in [1] (IC50) required 610 nM.

Consider `O=C1NC(=O)/C(=C\c2ccc(C(=O)Nc3nnc(SCc4ccccc4OC(F)(F)F)s3)cc2)S1`, for which the IC50 in [1] is 1320 nM. Still for that read-out and setting: to `O=C1NC(=O)/C(=C\c2ccc(C(=O)Nc3nnc(SCc4cccc(OC(F)(F)F)c4)s3)cc2)S1` belongs 1480 nM. For `COC(=O)c1ccc(CSc2nnc(NC(=O)c3ccc(/C=C4/SC(=O)NC4=O)cc3)s2)cc1`, in data set [1], half-maximal inhibition (IC50) was put at 650 nM. The same measure, in the same setting: the same measure for `O=C1NC(=O)/C(=C/c2ccc(C(=O)Nc3nnc(SCc4ccc5ncccc5c4)s3)cc2)S1`: 980 nM; for `O=C1NC(=O)/C(=C\c2ccc(C(=O)Nc3nnc(SCc4ccc(Cl)cc4)s3)cc2)S1`: 1390 nM; for `O=C1NC(=O)/C(=C\c2ccc(C(=O)Nc3nnc(SCc4cccc(Br)c4)s3)cc2)S1`: 890 nM. For the compound `C[C@H]1O[C@H](O[C@H]2[C@H](O)[C@@H](O)[C@@H](O[C@H]3[C@H](O)[C@@H](O)C(O)O[C@@H]3CO)O[C@@H]2CO)[C@H](O)[C@@H](O)[C@@H]1N[C@H]1C=C(CO)[C@@H](O)[C@H](O)[C@H]1O` (some centres undefined), the outcome in data set [2] was Active.

The compound `C[C@H](CCC(=O)O)[C@H]1CC[C@H]2[C@@H]3CC[C@@H]4C[C@H](O)CC[C@]4(C)[C@H]3CC[C@]12C` [LITHOCHOLIC ACID] registered an IC50 in data set [1] of 9620 nM. The same measure, in the same setting: to `CC(C)(C)c1ccc(CSc2nnc(NC(=O)c3ccc(/C=C4\SC(=O)NC4=O)cc3)s2)cc1` belongs 1350 nM; to `O=C1NC(=O)/C(=C/c2ccc(C(=O)Nc3nnc(SCc4ccc(F)cc4Cl)s3)cc2)S1`, 1070 nM; to `O=C1NC(=O)/C(=C/c2ccc(C(=O)Nc3nnc(SCc4ccc(F)cc4F)s3)cc2)S1`, 1240 nM. Same read-out and setting: to `Cc1ccccc1CSc1nnc(NC(=O)c2ccc(/C=C3/SC(=O)NC3=O)cc2)s1` belongs 4680 nM. Still for that read-out and setting: the same measure for `O=C1NC(=O)/C(=C\c2ccc(C(=O)Nc3nnc(SCc4ccccc4-c4ccccc4)s3)cc2)S1`: 3560 nM; for `O=C1NC(=O)/C(=C\c2ccc(C(=O)Nc3nnc(SCc4ccc(Br)cc4)s3)cc2)S1`: 590 nM; for `Cc1ccc(CSc2nnc(NC(=O)c3ccc(/C=C4/SC(=O)NC4=O)cc3)s2)cc1`: 880 nM. In the case of `O=C1NC(=O)/C(=C\c2ccc(C(=O)Nc3nnc(SCc4cccc(F)c4)s3)cc2)S1`, the IC50 in data set [1] was 2080 nM. As for `O=C1NC(=O)/C(=C\c2ccc(C(=O)Nc3nnc(SCc4ccc(F)cc4)s3)cc2)S1`, in [1], the IC50 came out at 1840 nM. The compound `N#Cc1ccccc1CSc1nnc(NC(=O)c2ccc(/C=C3/SC(=O)NC3=O)cc2)s1` registered an IC50 in [1] of 2170 nM. The same measure, in the same setting: to `O=C1NC(=O)/C(=C/c2ccc(C(=O)Nc3nnc(SCc4ccc(F)c(F)c4F)s3)cc2)S1` belongs 1130 nM; to `O=C1NC(=O)/C(=C\c2ccc(C(=O)Nc3nnc(SCc4ccccc4Br)s3)cc2)S1`, 1870 nM; to `O=C1NC(=O)/C(=C\c2ccc(C(=O)Nc3nnc(SCc4cccc(C(F)(F)F)c4)s3)cc2)S1`, 1070 nM. The same measure, in the same setting: to `COC(=O)c1cccc(CSc2nnc(NC(=O)c3ccc(/C=C4/SC(=O)NC4=O)cc3)s2)c1` belongs 1120 nM; to `O=C1NC(=O)/C(=C\c2ccc(C(=O)Nc3nnc(SCc4ccc([N+](=O)[O-])cc4)s3)cc2)S1`, 1820 nM. Still for that read-out and setting: to `COc1cccc(CSc2nnc(NC(=O)c3ccc(/C=C4/SC(=O)NC4=O)cc3)s2)c1` belongs 3220 nM; to `O=C1NC(=O)/C(=C\c2ccc(C(=O)Nc3nnc(SCc4cccc(Cl)c4)s3)cc2)S1`, 1640 nM; to `O=C1NC(=O)/C(=C\c2ccc(C(=O)Nc3nnc(SCc4ccccc4C(F)(F)F)s3)cc2)S1`, 1180 nM.

For `N#Cc1ccc(CSc2nnc(NC(=O)c3ccc(/C=C4/SC(=O)NC4=O)cc3)s2)cc1`, the result in [3], in data set [5], in data set [9] and in data set [11] was Active. Further, the inhibition entry in data set [4] and in [7] was “Active” throughout. For the same compound, the Activity result in data set [6] and in data set [8] was “Non-Toxic” each time. Also, in data set [1], the IC50 was found to be 410 nM. For the same compound, the inhibition entry in [10] and in [13] was “Dose-Dependent Effect” each time. Also, the Ratio IC50 in data set [12] was 23.5. With `COC(=O)c1ccccc1CSc1nnc(NC(=O)c2ccc(/C=C3/SC(=O)NC3=O)cc2)s1`, inhibition in data set [1] was half-maximal at 1210 nM (IC50). The same measure, in the same setting: the same measure for `O=C1NC(=O)/C(=C/c2ccc(C(=O)Nc3nnc(SCc4ccc(F)c(F)c4)s3)cc2)S1`: 750 nM; for `O=C1NC(=O)/C(=C/c2ccc(C(=O)Nc3nnc(SCc4cc(C(F)(F)F)cc(C(F)(F)F)c4)s3)cc2)S1`: 1730 nM. The same measure, in the same setting: to `O=C1NC(=O)/C(=C\c2ccc(C(=O)Nc3nnc(SCc4cccc([N+](=O)[O-])c4)s3)cc2)S1` belongs 3760 nM.

As to `O=C1NC(=O)/C(=C\c2ccc(C(=O)Nc3nnc(SCc4ccc(OC(F)(F)F)cc4)s3)cc2)S1`, in [1], the IC50 was determined as 890 nM. This IC50 is about 4.2-fold lower than that of the compound before.

`O=C1NC(=O)/C(=C\c2ccc(C(=O)Nc3nnc(SCc4ccccc4[N+](=O)[O-])s3)cc2)S1` returned an IC50 in data set [1] of 4090 nM. Compared with the last compound, the IC50 is about 4.6-fold higher. On the same count and under the same terms, to `O=C1NC(=O)/C(=C\c2ccc(C(=O)Nc3nnc(SCc4ccccc4Cl)s3)cc2)S1` belongs 2910 nM; to `O=C1NC(=O)/C(=C/c2ccc(C(=O)Nc3nnc(SCc4ccc(-c5ccccc5)cc4)s3)cc2)S1`, 1470 nM. The same measure, in the same setting: the same measure for `CS(=O)(=O)c1ccc(CSc2nnc(NC(=O)c3ccc(/C=C4\SC(=O)NC4=O)cc3)s2)cc1`: 1410 nM; for `Cc1cccc(CSc2nnc(NC(=O)c3ccc(/C=C4/SC(=O)NC4=O)cc3)s2)c1`: 3850 nM. As for `O=C1NC(=O)/C(=C/c2ccc(C(=O)Nc3nnc(SCc4ccc5ccccc5c4)s3)cc2)S1`, the IC50 in data set [1] turned out to be 3770 nM. The same measure, in the same setting: the same measure for `O=C1NC(=O)/C(=C\c2ccc(C(=O)Nc3nnc(SCc4ccccc4F)s3)cc2)S1`: 1850 nM; for `O=C1NC(=O)/C(=C/c2ccc(C(=O)Nc3nnc(SCc4ccc(F)c(Cl)c4)s3)cc2)S1`: 820 nM; for `O=C1NC(=O)/C(=C\c2ccc(C(=O)Nc3nnc(SCc4ccccc4)s3)cc2)S1`: 1270 nM. Still for that read-out and setting: the same measure for `O=C1NC(=O)/C(=C/c2ccc(C(=O)Nc3nnc(SCc4ccc(C(F)(F)F)cc4)s3)cc2)S1`: 910 nM.
